From patent publication US9890185B2, “Urea derivatives useful as kinase inhibitors” (Respivert Limited, priority 2013, dated 2018)

What was measured:
[1] = biological target: p38 MAPKα isoform (MAPK14) (Homo sapiens (Human), UniProt Q16539); assay: p38 MAPKα enzyme inhibition (FRET, Z-LYTE, Method 2); format: biochemical
Outline: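 Z-LYTE FRET: p38 MAPKα (80 ng/mL for Method 1, 200 ng/mL for Method 2, pre-dilution) preincubated 2 hr RT with compound (4–0.004 μg/mL solutions), activity read via MAPKAP-K2 phosphorylation after 1 hr RT and 1 hr protease development. Coumarin/fluorescein ratio gives phosphorylation; % inhibition versus uninhibited control, IC50 from concentration-response curve.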

Syk = Syk (Homo sapiens (Human), UniProt P43405); assay: Syk enzyme inhibition (FRET, Z-LYTE); format: biochemical
Outline: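 Each kinase is exposed to test compound for 2 hr at RT before substrate and ATP (pre-mix levels: c-Src 800 μM, Syk 60 μM) start a 1 hr reaction. A 1 hr protease step removes signal from non-phosphorylated peptide; inhibition against uninhibited control yields IC50.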

GSK 3α = GSK 3α (Homo sapiens (Human), UniProt P49840); assay: GSK 3α enzyme inhibition (FRET, Z-LYTE, Method 2); format: biochemical; details: read-out: IC50 Values for Enzyme Inhibition, GSK3α
GSK 3α, sequence (P49840 whole entry): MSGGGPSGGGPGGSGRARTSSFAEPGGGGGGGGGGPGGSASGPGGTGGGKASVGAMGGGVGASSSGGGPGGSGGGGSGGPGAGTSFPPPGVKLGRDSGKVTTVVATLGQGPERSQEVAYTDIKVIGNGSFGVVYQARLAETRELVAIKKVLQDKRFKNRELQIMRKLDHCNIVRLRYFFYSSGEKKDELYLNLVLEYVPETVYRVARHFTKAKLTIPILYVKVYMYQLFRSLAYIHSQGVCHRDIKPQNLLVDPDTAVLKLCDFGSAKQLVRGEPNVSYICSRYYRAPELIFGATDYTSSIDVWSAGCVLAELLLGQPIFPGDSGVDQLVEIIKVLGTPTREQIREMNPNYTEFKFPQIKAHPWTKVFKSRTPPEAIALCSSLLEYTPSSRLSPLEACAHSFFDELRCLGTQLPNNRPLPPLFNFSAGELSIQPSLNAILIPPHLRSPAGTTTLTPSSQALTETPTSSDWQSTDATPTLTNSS
Outline: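 Recombinant human GSK3α was preincubated with compound (stocks 4, 0.4, 0.04 or 0.004 μg/mL) at RT, 2 hr for Method 1 and 105 min for Method 2. FRET peptide (8 μM stock) and ATP (40 μM stock) were added for 1 hr, then protease development for 1 hr. IC50 was taken from concentration–response curves.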

PBMCs = assay: Cell mitosis assay in PBMCs (assay g); format: cell-based; details: Homo sapiens, PBMC, test compound 5 μg/mL
Outline: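 Metaphase arrest with 0.1 μg/mL demecolcine during the final 2 hr of a 20 hr compound exposure, which follows 48 hr of 2% PHA stimulation of healthy-donor human PBMCs. Mitotic lymphocytes counted by flow cytometry (anti-phospho-histone 3 plus propidium iodide). Inhibition expressed relative to 0.5% DMSO.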

d-U937 cells = assay: Accumulation of β catenin in d-U937 cells (assay m); format: cell-based, human; details: percentage relative to Reference Compound at 1 μg/mL
Outline: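 Read-out: colourimetric cell-based immunoassay for endogenous β-catenin (OD450 minus 655 reference), normalised to crystal violet absorbance at 595 nm. Test compound or vehicle was applied for 18 hr to U937 monocytes first differentiated with PMA (100 ng/mL) for 48–72 hr.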

p38 MAPKα isoform (MAPK14), sequence (Q16539 whole entry, canonical isoform): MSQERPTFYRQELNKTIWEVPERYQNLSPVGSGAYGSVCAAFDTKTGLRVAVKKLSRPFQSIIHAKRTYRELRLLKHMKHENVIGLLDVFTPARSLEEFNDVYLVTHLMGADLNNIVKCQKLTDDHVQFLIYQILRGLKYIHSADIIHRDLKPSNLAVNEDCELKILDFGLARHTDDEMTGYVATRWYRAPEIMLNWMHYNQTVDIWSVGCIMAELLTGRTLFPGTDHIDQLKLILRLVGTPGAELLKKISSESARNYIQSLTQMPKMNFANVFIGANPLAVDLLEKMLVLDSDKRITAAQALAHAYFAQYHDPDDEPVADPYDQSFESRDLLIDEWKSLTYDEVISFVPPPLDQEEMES

Structure (SMILES) | IC50 [1] [µM] | IC50 (Syk) [µM] | IC50 (GSK 3α) [µM] | inhibition at 5 µg/mL (PBMCs) [%] | % β-catenin induction (d-U937 cells; test compound 1 μg/mL) [%] | % β-catenin induction (d-U937 cells; test compound 5 μg/mL) [%] | % β-catenin induction (d-U937 cells; test compound 10 μg/mL) [%]
COc1c(NC(=O)Nc2ccc(Oc3ccnc(Nc4cc(C)cc(C)c4)c3)c3ccccc23)cc(C(C)(C)C)cc1P(C)(C)=O [Example 28, 1-(5-(tert-Butyl)-3-(dimethylphosphoryl)-2-methoxyphenyl)-3-(4-((2-((3,5-dimethylphenyl)-amino)pyridin-4-yl)oxy)naphthalen-1-yl)urea] | 0.254 | 0.157 | 8.26 | 54.4 | 3.0 | 6.7 | 11.3
COc1cc(Nc2cc(Oc3ccc(NC(=O)Nc4cc(C(C)(C)C)cc(CC(N)=O)c4OC)c4ccccc34)ccn2)cc(OC)c1 [Example 30, 2-(5-(tert-Butyl)-3-(3-(4-((2-((3,5-dimethoxyphenyl)amino)pyridin-4-yl)oxy)naphthalen-1-yl)ureido)-2-methoxyphenyl)acetamide] | 0.132 | 0.708 | > 15.4 | 48.7 | 6.5 | 23.5 | 1.0
COc1c(CNC(C)=O)cc(C(C)(C)C)cc1NC(=O)Nc1ccc(Oc2ccnc(Nc3ccccc3)c2)c2ccccc12 [Example 35, N-(5-(tert-Butyl)-2-methoxy-3-(3-(4-((2-(phenylamino)pyridin-4-yl)oxy)naphthalen-1-yl)ureido)benzyl)acetamide] | 0.294 | 0.369 | > 11.8 | 50.6 | 5.5 | 16.5 | 23.5
COc1cc(Nc2cc(Oc3ccc(NC(=O)Nc4cc(C(C)(C)C)cc(P(C)(C)=O)c4OC)c4ccccc34)ccn2)cc(C(N)=O)c1 [Example 37, 3-((4-((4-(3-(5-(tert-butyl)-3-(dimethylphosphoryl)-2-methoxyphenyl)ureido)-naphthalen-1-yl)oxy)pyridin-2-yl)amino)-5-methoxybenzamide] | 0.062 | 0.347 | 2.16 | 43.2 | 2.0 | 15.5 | 25.5
COc1cc(Nc2cc(Oc3ccc(NC(=O)Nc4cc(C(C)(C)C)cc([S+](C)[O-])c4OC)c4ccccc34)ccn2)cc(OC)c1 (centres unmarked) [Example 40, 1-(5-(tert-Butyl)-2-methoxy-3-(methylsulfinyl)phenyl)-3-(4-((2-((3,5-dimethoxyphenyl)amino)pyridin-4-yl)oxy)naphthalen-1-yl)urea] | 0.302 | 0.201 | > 15.3 | 44.3 | −2.0 | −2.0 | −0.5
COc1cccc(Nc2cc(Oc3ccc(NC(=O)Nc4cc(C(C)(C)C)cc([S+](C)[O-])c4OC)c4ccccc34)ccn2)c1 (centres unmarked) [Example 41, 1-(5-(tert-Butyl)-2-methoxy-3-(methylsulfinyl)phenyl)-3-(4-((2-((3-methoxyphenyl)amino)pyridin-4-yl)oxy)naphthalen-1-yl)urea] | 0.179 | 0.247 | 10.2 | 36 | −1.0 | −1.5 | 1.5
COc1cc(Nc2cc(Oc3ccc(NC(=O)Nc4cc(C(C)(C)C)cc(CNC(C)=O)c4OC)c4ccccc34)ccn2)cc(OC)c1 [Example 44, N-(5-(tert-Butyl)-3-(3-(4-((2-((3,5-dimethoxyphenyl)amino)pyridin-4-yl)oxy)naphthalen-1-yl)ureido)-2-methoxybenzyl)acetamide] | 0.175 | 0.095 | > 15.1 | 42.8 | 5.0 | 8.0 | 11.0

Continued, in another order:

IC50 [1] [µM] | IC50 (Syk) [µM] | IC50 (GSK 3α) [µM] | Structure (SMILES) | inhibition at 5 µg/mL (PBMCs) [%] | % β-catenin induction (d-U937 cells; test compound 1 μg/mL) [%] | % β-catenin induction (d-U937 cells; test compound 5 μg/mL) [%] | % β-catenin induction (d-U937 cells; test compound 10 μg/mL) [%]
0.22 | 0.289 | 7.45 | COc1c(CP(C)(C)=O)cc(C(C)(C)C)cc1NC(=O)Nc1ccc(Oc2ccnc(Nc3ccccc3)c2)c2ccccc12 [Example 24, 1-(5-(tert-Butyl)-3-((dimethylphosphoryl)methyl)-2-methoxyphenyl)-3-(4-((2-(phenylamino)-pyridin-4-yl)oxy)naphthalen-1-yl)urea] | 37.9 | −3.0 | 13.0 | 16.5
0.323 | 0.724 | 9.62 | COc1c(C[S+](C)[O-])cc(C(C)(C)C)cc1NC(=O)Nc1ccc(Oc2ccnc(Nc3ccccc3)c2)c2ccccc12 (centres unmarked) [Example 25, 1-(5-(tert-Butyl)-2-methoxy-3-((methylsulfinyl)methyl)phenyl)-3-(4-((2-(phenylamino)pyridin-4-yl)oxy)naphthalen-1-yl)urea] | 24.5 | 1.0 | 8.0 | 17.5
0.109 | 0.519 | 10.5 | COc1cccc(Nc2cc(Oc3ccc(NC(=O)Nc4cc(C(C)(C)C)cc(CC(N)=O)c4OC)c4ccccc34)ccn2)c1 [Example 33, 2-(5-(tert-Butyl)-2-methoxy-3-(3-(4-((2-((3-methoxyphenyl)amino)pyridin-4-yl)oxy)naphthalen-1-yl)ureido)phenyl)acetamide] | 31.3 | −1.0 | 3.5 | 9.5
0.129 | 0.132 | 7.7 | COc1cccc(Nc2cc(Oc3ccc(NC(=O)Nc4cc(C(C)(C)C)cc(CNC(C)=O)c4OC)c4ccccc34)ccn2)c1 [Example 43, N-(5-(tert-Butyl)-2-methoxy-3-(3-(4-((2-((3-methoxyphenyl)amino)pyridin-4-yl)oxy)naphthalen-1-yl)ureido)benzyl)acetamide] | 62.1 | 7.5 | 19.5 | 20.5
